Test results: patent US11844801B2, “Oral compositions of MK2 pathway inhibitor for treatment of immune conditions” (priority 2020, dated 2023)
Several values for one entry are separate records, joined by “and”; a condition that tells them apart may be missing. Identical values can stand only once. Like-named read-outs stand apart in the source and are kept apart here.

Experiment: Phase 1 SAD/MAD pharmacokinetics of oral ATI-450 in healthy subjects (incl. 80/120 mg BID extension)
Format: in vivo, human
Conditions: for concentration at 7 day / concentration at 2 day / concentration at 3 day / concentration at 4 day / concentration at 5 day / concentration at 6 day: read-out: Ctrough; for Tmax: read-out: Tmax, median (min, max); for concentration at 2 day: day 2; for concentration at 3 day: day 3; for concentration at 4 day: day 4; for concentration at 5 day: day 5; for concentration at 6 day: day 6; for half-life: read-out: t1/2 (converted)
Procedure: Study Design. […] Single ascending dose (SAD) cohorts. […] Multiple ascending dose (MAD) cohorts. […] Blood Sampling and Bioanalysis. Two-milliliter blood samples were collected for PK analysis. […] The lower limit of quantification was 0.500 ng/mL. Pharmacokinetics. […] Bioanalysis Assay of ATI-450. Sample processing was performed by protein precipitation using a 50.0-μL sample volume. […] A triple quadrupole 6500 mass spectrometer equipped with a turbo-ion spray source was used for detection in positive ion mode. […] A linear calibration curve ranging from 0.500 to 500 ng/mL with a 1/x^2 weighting factor was used. The method was minimally required to have intra- and inter-day precision (coefficients of variation) for pooled plasma quality control samples of ≤15% except at the lower limit of quantitation, where ≤20% was acceptable. The calculated concentrations (both inter- and intra-day) were required to be within 15% of nominal at all concentrations except the lower limit of quantitation, where up to 20% deviation from nominal was acceptable. The precision and accuracy of the method exceeded these minimum requirements for assay validation.

[1] = 100 mg single dose, fed vs fasted
[2] = both sexes, human, plasma, oral, 10 mg, 10 mg BID
[3] = both sexes, human, plasma, oral, 10 mg, 10 mg BID, day 7
[4] = both sexes, human, plasma, oral, 30 mg, 30 mg BID
[5] = both sexes, human, plasma, oral, 30 mg, 30 mg BID, day 7
[6] = both sexes, human, plasma, oral, 50 mg, 50 mg BID, day 1
[7] = both sexes, human, plasma, oral, 50 mg, 50 mg BID
[8] = both sexes, human, plasma, oral, 50 mg, 50 mg BID, day 7

Cc1cnc(-c2ccnc(C(C)(C)O)n2)cc1-n1c(C)cc(OCc2ncc(F)cc2F)c(Cl)c1=O (single isomer, unassigned) [ATI-450, 3-chloro-4-((3,5-difluoropyridin-2-yl)methoxy)-2′-(2-(2-hydroxypropan-2-yl)pyrimidin-4-yl)-5′,6-dimethyl-2H-[1,4′-bipyridin]-2-one]
AUC(0-t) (10 mg BID, day 7): 364.6 ± 110.7 ng·h/mL | AUCtau (10 mg BID, day 7): 287.8 ± 81.5 ng·h/mL | CLss/F (10 mg BID, day 7): 37.4 ± 10.9 L/h | Cavg (10 mg BID, day 7): 24.0 ± 6.8 ng/mL | Cmin (10 mg BID, day 7): 8.1 ± 3.1 ng/mL | Ctrough (10 mg BID, day 7): 11.8 ± 5.2 ng/mL | Tmax, median (min, max) (10 mg BID, day 7): 2.0 (2.0-2.0) h | Vss/F (10 mg BID, day 7): 517.4 ± 203.2 L | AUC(0-t) (30 mg BID, day 7): 1204.6 ± 309.1 ng·h/mL | AUCtau (30 mg BID, day 7): 908.9 ± 163.1 ng·h/mL | CLss/F (30 mg BID, day 7): 33.9 ± 5.9 L/h | Cavg (30 mg BID, day 7): 75.6 ± 13.4 ng/mL | Cmin (30 mg BID, day 7): 28.8 ± 10.7 ng/mL | Ctrough (30 mg BID, day 7): 41.1 ± 18.3 ng/mL | Tmax, median (min, max) (30 mg BID, day 7): 2.0 (1.0-4.0) h | Vss/F (30 mg BID, day 7): 483.1 ± 85.1 L | t1/2 (30 mg BID, day 7): 10.3 ± 3.2 h | Tmax, median (min, max) (50 mg BID, day 1): 2.0 (2.0-4.0) h | AUC0-12 (50 mg BID, day 7): 1507.8 (659.9) ng · h/mL | CLss/F (50 mg BID, day 7): 37.3 ± 11.7 L/h | Cavg (50 mg BID, day 7): 125.6 ± 55.0 ng/mL | Cmax (50 mg BID, day 7): 219.0 (77.8) ng/mL | Cmin (50 mg BID, day 7): 58.7 ± 32.8 ng/mL | Ctrough (50 mg BID, day 7): 87.9 ± 49.4 ng/mL | Tmax, median (min, max) (50 mg BID, day 7): 3.0 (1.0, 4.0) h and 3.0 (1.0-4.0) h | CLss/F (80 mg BID, day 7): 33.2 ± 7.6 L/h | Ctrough (80 mg BID, day 7): 158.3 ± 60.3 ng/mL | AUC0-∞ higher in the fed state [1]: about 24% | Cmax lower in the fed state [1]: about 9% | CLss/F (120 mg BID, day 7): 52.3 ± 17.4 L/h | Ctrough (120 mg BID, day 7): 155.8 ± 93.1 ng/mL | accumulation after multiple dosing (10-50 mg BID): up to 1.4 fold | terminal half-life (mean t1/2), range over cohorts (MAD cohorts 10-50 mg BID, day 7): 9 to 12 h | concentration at 7 day (both sexes, human, plasma, oral, 10 mg BID, day 7): 11.8 ng/mL | AUC(0-t) (both sexes, human, plasma, oral, 10 mg, 10 mg BID, day 1, read-out: AUC0-12): 200 ng·h/mL | Cmax (both sexes, human, plasma, oral, 10 mg, 10 mg BID, day 1, read-out: Cmax): 34.3 ng/mL | Tmax (both sexes, human, plasma, oral, 10 mg, 10 mg BID, day 1): 2 h | concentration at 2 day [2]: 10.1 ± 4.7 ng/mL | concentration at 3 day [2]: 9.8 ± 4.5 ng/mL | concentration at 4 day [2]: 9.2 ± 5 ng/mL | concentration at 5 day [2]: 9.6 ± 4.7 ng/mL | concentration at 6 day [2]: 10.7 ± 4.9 ng/mL | AUC(0-t) (both sexes, human, plasma, oral, 10 mg, 10 mg BID, day 7, read-out: AUC0-12): 288 ng·h/mL | Cmax (both sexes, human, plasma, oral, 10 mg, 10 mg BID, day 7, read-out: Cmax): 51.8 ng/mL | Tmax [3]: 2 h | half-life [3]: 576 min | concentration at 7 day (both sexes, human, plasma, oral, 30 mg BID, day 7): 41.1 ng/mL | AUC(0-t) (both sexes, human, plasma, oral, 30 mg, 30 mg BID, day 1, read-out: AUC0-12): 681 ng·h/mL | Cmax (both sexes, human, plasma, oral, 30 mg, 30 mg BID, day 1, read-out: Cmax): 126 ng/mL | Tmax (both sexes, human, plasma, oral, 30 mg, 30 mg BID, day 1): 2 h | concentration at 2 day [4]: 37.5 ± 18.8 ng/mL | concentration at 3 day [4]: 44.1 ± 29.3 ng/mL | concentration at 4 day [4]: 36.8 ± 14.9 ng/mL | concentration at 5 day [4]: 34.9 ± 13.8 ng/mL | concentration at 6 day [4]: 38.9 ± 16.2 ng/mL | AUC(0-t) (both sexes, human, plasma, oral, 30 mg, 30 mg BID, day 7, read-out: AUC0-12): 909 ng·h/mL | Cmax (both sexes, human, plasma, oral, 30 mg, 30 mg BID, day 7, read-out: Cmax): 146 ng/mL | Tmax [5]: 2 h | half-life [5]: 618 min | concentration at 7 day (both sexes, human, plasma, oral, 50 mg BID, day 7): 87.9 ng/mL | AUC [6]: 1180 ± 340 ng·h/mL | AUC(0-t) (both sexes, human, plasma, oral, 50 mg, 50 mg BID, day 1, read-out: AUC0-12): 1180 ng·h/mL | AUC(0-t) (both sexes, human, plasma, oral, 50 mg, 50 mg BID, day 1, read-out: AUC0-t): 1180 ± 340 ng·h/mL | Cmax (both sexes, human, plasma, oral, 50 mg, 50 mg BID, day 1, read-out: Cmax): 187 ng/mL | Tmax [6]: 2 h | concentration at 2 day [7]: 84 ± 40.6 ng/mL | concentration at 3 day [7]: 80.6 ± 44.2 ng/mL | concentration at 4 day [7]: 81.5 ± 49.6 ng/mL | concentration at 5 day [7]: 81.5 ± 43.9 ng/mL | concentration at 6 day [7]: 76.4 ± 38.6 ng/mL | AUC [8]: 1510 ± 660 ng·h/mL | AUC(0-t) (both sexes, human, plasma, oral, 50 mg, 50 mg BID, day 7, read-out: AUC0-12): 1510 ng·h/mL | AUC(0-t) (both sexes, human, plasma, oral, 50 mg, 50 mg BID, day 7, read-out: AUC0-24, total daily exposure calculated as AUC0-12 × 2): 3040 ng·h/mL | AUC(0-t) (both sexes, human, plasma, oral, 50 mg, 50 mg BID, day 7, read-out: AUC0-t): 2260 ± 1070 ng·h/mL | Cmax (both sexes, human, plasma, oral, 50 mg, 50 mg BID, day 7, read-out: Cmax): 219 ng/mL | Tmax [8]: 3 h | half-life [8]: 696 min | concentration at 7 day (both sexes, human, plasma, oral, 80 mg BID, day 7): 158 ng/mL | AUC (both sexes, human, plasma, oral, 80 mg, 80 mg BID, day 1): 1690 ± 454 ng·h/mL | AUC(0-t) (both sexes, human, plasma, oral, 80 mg, 80 mg BID, day 1, read-out: AUC0-t): 1680 ± 451 ng·h/mL
